# Experimental data published in patent US20250312300A1, “BRIDGED BICYCLIC CARBOXYLIC ACIDS FOR TREATING OSTEOSARCOMA AND EWING SARCOMA” (UEA ENTERPRISES LIMITED, priority 2022, published 2025).
# “Also recorded” adds a separate entry of the source.
# Legend:
# [1] = test system: TC71 (human ES) cells; test: Proliferation assay (WST-1), ES cells; type: cell-based; conditions: 100 μM CADD522, 72 h, WST-1, relative to control
# Protocol: (§1) Cell lines. 143B (human OS) and TC71 (human ES) cells were obtained from ATCC. Cells were authenticated by STR profiling and were cultured in DMEM/F-12 (Thermo Fisher Scientific) or IMDM (Thermo Fisher Scientific) containing 1% (v/v) insulin transferrin selenium, 10% (v/v) FBS and 1% (v/v) penicillin/streptomycin. Medium was refreshed every other day and cells were maintained at 37° C. in 5% CO2. For the animal experiments 143B and TC71 cells were modified by transfecting with the GFP-luciferase tagged LVP02 lentivirus (AMSBIO). Adding the luciferase tag had no effect on cell phenotype.
# (§2) Proliferation assays. 1×10^3 cells in 100 μL of medium were seeded per well into 96-well plates. PBS was added to outer wells to prevent evaporation. All plates were incubated for 24 h at 37° C. in 5% CO2. 100 nM, 1 μM, 10 μM and 100 μM CADD522 were added from a stock concentration of 10 mM in DMSO and incubated for 72 h before measuring cell viability/proliferation using the WST-1 assay kit (Abcam) following manufacturer's instructions. Data was presented as relative to the control (appearing as −11 on x-axis), which is set to 100% viability. Experiments were performed in quadruplicates in three independent experiments.
# (§3) Statistics. […] Data was tested for normality by D'Agostino Pearson Omnibus test and analysed in GraphPad Prism v9 with p=<0.05 regarded as significant. […]
# [2] = test system: 143B+GFP-Luc (OS) cells; test: PBC xenograft mouse model, OS; type: in vivo, BALB/c nude mice
# Protocol: (§4) Mice. The University of Sheffield Animal Welfare and Ethics Committee approved the animal experiments. Experiments were performed under licence in accordance with the UK Home Office guidelines and under the Animals (Scientific Procedures) Act 1986. Six- to seven-week-old female BALB/c nude mice (Charles River Laboratories) were acclimatised for one week prior to in vivo study. Mice were housed with a 12 h light-dark cycle at 22° C. and had free access to 2018 Teklad global 18% protein rodent diet containing 1.01% calcium (Harlan) and water. Mice were anesthetised by isoflurane inhalation before implantation with 2.5×10^5 143B+GFP-Luc (OS) cells or 5×10^5 TC71+GFP-Luc (ES) cells in 20 μl PBS onto the tibial surface. Mice were matched by weight and initial IVIS signal and then randomly divided into groups (n=8 mice/group). CADD522 treatment commenced the day after tumours became visible. Mice received either vehicle control (PBS and DMSO) or CADD522 (25 mg/kg) by IP injection five times per week. Tumours were measured by callipers throughout the study twice per week blinded. Two perpendicular measurements were taken and volume calculated by the formula V=0.523×L×(S)^2 where L and S refer to the largest and smallest measurement. Mice were treated until the palpable tumour reached the permissible 12 mm diameter limit. At the end of the procedure ex vivo imaging of mouse internal organs was performed to detect metastasis. Prior to killing, mice were injected subcutaneously with 150 mg/kg XenoLight D-Luciferin substrate (Perkin Elmer) that was left to disperse for a minimum of 5 m. Dissected organs were then imaged using the IVIS Lumina II. Mice legs and lungs were dissected and fixed in 10% formalin for further analysis.
# Micro-CT. Fixed tibiae were scanned using a SkyScan 1172 desktop micro-CT machine (Bruker) at 8 um resolution with the X-ray source operating at 50 kV, 200 uA and using a 0.5 mm aluminium filter. Images were captured every 0.7°. Scanned images were reconstructed using Skyscan NRecon software v1.6.9 (Bruker). The region of interest (ROI) for the total bone volume was selected to include both the tibia and fibula and was determined at the top of the bone as soon as the tibia enters the image to the lower point where the tibia and fibula meet.
# Histology. Bones were fixed in neutral buffered formalin for 48 h after which they were transferred to 70% ethanol. Bones were then decalcified in 10% EDTA, embedded in paraffin and 5 μm sections produced. Sections were de-waxed in xylene, rehydrated through graded alcohols and stained in haematoxylin (VWR) and eosin. The sections were dehydrated through graded alcohols and coverslips were mounted in DPX and imaged using Olympus BX51 microscope (Olympus Life Sciences) and Pannoramic 250 Flash III slide scanner (3[…]).
# Statistics. For statistical tests p=<0.05 was considered as statistically significant. Proliferation data is reported for each experimental repeat (n=3). Data was tested for normality by D'Agostino Pearson Omnibus test and analysed in GraphPad Prism v9 with p=<0.05 regarded as significant. A one-way ANOVA was used to identify any differences in proliferation across the concentration range tested compared to the untreated control. A post-hoc Dunnett's multiple comparison was then used to determine which concentration impacted proliferation compared to the untreated control. […]
# [3] = test system: 143B (human OS) cells; test: Proliferation assay (WST-1), OS cells; type: cell-based; conditions: 100 μM CADD522, 72 h, WST-1, relative to control
# Protocol: as §1, §2, §3
# [4] = Observed toxicity in treated PBC model mice; type: in vivo; conditions: 25 mg/kg over the study period
# Protocol: as §4, with “At the end of the procedure ex vivo imaging of mouse internal organs was performed to detect metastasis. Prior to killing, mice were injected subcutaneously with 150 mg/kg XenoLight D-Luciferin substrate (Perkin Elmer) that was left to disperse for a minimum of 5 m. Dissected organs were then imaged using the IVIS Lumina II. Mice legs and lungs were dissected and fixed in 10% formalin for further analysis.” left out
# [5] = test system: TC71+GFP-Luc (ES) cells; test: PBC xenograft mouse model, ES; type: in vivo, BALB/c nude mice
# Protocol: as §4, with “Mice legs and lungs were dissected and fixed in 10% formalin for further analysis.” left out
# Micro-CT. […] The region of interest (ROI) for the total bone volume was selected to include both the tibia and fibula and was determined at the top of the bone as soon as the tibia enters the image to the lower point where the tibia and fibula meet. […]
# as §3
# [6] = test system: osteosarcoma and Ewing sarcoma; conditions: PMID: 20068084; cited from earlier work
# [7] = test system: osteosarcoma; conditions: at 18 weeks of treatment, PMID: 33580363; cited from earlier work
# [8] = 25 mg/kg IP, compared to controls
molecule,measurement,setting,value
"O=C(O)C1C2C=CC(C2)C1C(=O)Nc1ccc(Cl)c(Cl)c1 (stereo not shown) [CADD522, 3-(N-(3,4-dichlorophenyl)carbamoyl)-5-norbornene-2-carboxylic acid]",ES cell viability/proliferation,[1],cytotoxic; also recorded: showed cell proliferation differences
same,"metastasis-free survival, OS mice","[2]; 25 mg/kg IP five times per week vs control, p=0.0091",significantly increased metastasis-free survival
same,"overall survival, OS mice","[2]; 25 mg/kg IP five times per week vs control, p=0.093",Half of OS mice receiving CADD522 treatment survived longer than the control group
same,OS tumour volume over time,"[2]; 25 mg/kg IP five times per week vs vehicle control, p=0.0072",significantly reduced tumour volume
same,histology (H&E) of OS tumours at endpoint,[2]; [8],"more densely packed, generally more vascularised and more organised (arranged in chords)"
same,"bone volume difference, tumour bearing leg vs contralateral (CL) leg (micro-CT)","[2]; OS mice, 25 mg/kg IP, in control mice difference significant (p=0.02)",no longer statistically significant
same,OS cell viability/proliferation,[3],cytotoxic effect; also recorded: significantly reduced cell proliferation
same,observed toxicity in the animals,[4],no observed toxicity
same,"overall survival, ES mice","[5]; 25 mg/kg IP five times per week vs control, p=0.043",Significantly increased overall survival
same,ES tumour volume over time,"[5]; 25 mg/kg IP five times per week vs vehicle control, p=0.0003",significantly reduced tumour volume
same,histology (H&E) of ES tumours at endpoint,[5]; [8],generally more vascularised
C/C(=C\c1csc(C)n1)[C@@H]1C[C@@H]2O[C@]2(C)CCC[C@H](C)[C@H](O)[C@@H](C)C(=O)C(C)(C)[C@@H](O)CC(=O)N1 [ixabepilone],clinical response,[6],no partial or complete responses were observed
pembrolizumab,clinical benefit,[7],no patients had clinical benefit
